Results from ChEMBL document CHEMBL4616632, “Discovery of Cyclic Boronic Acid QPX7728, an Ultrabroad-Spectrum Inhibitor of Serine and Metallo-β-lactamases” (J Med Chem, 2020).

The compounds below were run on Escherichia coli (assay: Inhibition of Escherichia coli EC302 TEM-10 assessed as minimum concentration of compound needed to reduce the MIC of aztreonam to 4 ug/ml).

| Structure (SMILES) | MEC [µg/mL] |
| --- | --- |
| COc1ccc2c(c1C(=O)O)OB(O)CC21CC1 | 5 |
| O=C(O)c1nccc2c1OB(O)[C@H]1C[C@@H]21 | 5 |

Second part, the compound after the results:

| MEC [µg/mL] | Structure (SMILES) |
| --- | --- |
| > 20 | C[C@H]1Cc2cccc(C(=O)O)c2OB1O |
| 0.3 | COc1ccc2c(c1C(=O)O)OB(O)C1CC21 (stereo not given) |
| 5 | COc1ccc2c(c1C(=O)O)OB(O)C1C2C1(F)F (stereo not given) |

The compounds below were run against Beta-lactamase OXA-23 (Acinetobacter baumannii) (UniProt Q9L4P2) (assay: Inhibition of Acinetobacter baumannii AB1054 OXA-23 assessed as minimum concentration of compound needed to reduce the MIC of meropenem to 8 ug/ml).
Chain of Beta-lactamase OXA-23 (Acinetobacter baumannii) (Q9L4P2 whole entry): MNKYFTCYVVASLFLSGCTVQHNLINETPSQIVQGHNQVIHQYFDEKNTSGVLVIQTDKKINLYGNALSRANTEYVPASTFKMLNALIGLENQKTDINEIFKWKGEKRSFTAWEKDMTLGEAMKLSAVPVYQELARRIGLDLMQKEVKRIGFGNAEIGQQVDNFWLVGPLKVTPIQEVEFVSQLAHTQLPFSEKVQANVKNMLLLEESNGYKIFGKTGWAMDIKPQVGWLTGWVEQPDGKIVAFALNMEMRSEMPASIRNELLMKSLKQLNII

| Structure (SMILES) | MEC [µg/mL] |
| --- | --- |
| COc1ccc2c(c1C(=O)O)OB(O)CC21CC1 | 2.5 |
| O=C(O)c1nccc2c1OB(O)[C@H]1C[C@@H]21 | 10 |

The remaining lines, values ahead:

| MEC [µg/mL] | Structure (SMILES) |
| --- | --- |
| > 20 | C[C@H]1Cc2cccc(C(=O)O)c2OB1O |
| 1.25 | COc1ccc2c(c1C(=O)O)OB(O)C1CC21 (stereo not given) |
| 10 | COc1ccc2c(c1C(=O)O)OB(O)C1C2C1(F)F (stereo not given) |

The compounds below were run on Klebsiella pneumoniae (assay: Inhibition of Klebsiella pneumoniae KP1009 CTX-M-15 assessed as minimum concentration of compound required to reduce the MIC of aztreonam to 4 ug/ml).

| Structure (SMILES) | MEC [µg/mL] |
| --- | --- |
| COc1ccc2c(c1C(=O)O)OB(O)CC21CC1 | 2.5 |
| O=C(O)c1nccc2c1OB(O)[C@H]1C[C@@H]21 | 20 |

Next, values leading:

| MEC [µg/mL] | Structure (SMILES) |
| --- | --- |
| > 20 | C[C@H]1Cc2cccc(C(=O)O)c2OB1O |
| 0.3 | COc1ccc2c(c1C(=O)O)OB(O)C1CC21 (stereo not given) |
| 1.25 | COc1ccc2c(c1C(=O)O)OB(O)C1C2C1(F)F (stereo not given) |

The compounds below were run against Beta-lactamase (Klebsiella pneumoniae) (UniProt Q93LQ9) (assay: Inhibition of Klebsiella pneumoniae KP1004 KPC-2 assessed as minimum concentration of compound needed to reduce the MIC of aztreonam to 4 ug/ml).
Chain of Beta-lactamase (Klebsiella pneumoniae) (Q93LQ9 as listed by the source): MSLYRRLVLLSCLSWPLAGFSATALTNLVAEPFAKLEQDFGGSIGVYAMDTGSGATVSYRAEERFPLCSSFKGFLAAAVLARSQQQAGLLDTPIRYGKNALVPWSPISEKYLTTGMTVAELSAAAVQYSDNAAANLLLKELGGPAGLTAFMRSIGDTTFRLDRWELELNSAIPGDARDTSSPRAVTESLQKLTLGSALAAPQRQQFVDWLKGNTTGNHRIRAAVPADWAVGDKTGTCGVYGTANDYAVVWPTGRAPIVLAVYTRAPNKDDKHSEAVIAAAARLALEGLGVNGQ

| Structure (SMILES) | MEC [µg/mL] |
| --- | --- |
| COc1ccc2c(c1C(=O)O)OB(O)CC21CC1 | 1.25 |
| O=C(O)c1nccc2c1OB(O)[C@H]1C[C@@H]21 | 1.25 |

Other lines, results leading:

| MEC [µg/mL] | Structure (SMILES) |
| --- | --- |
| 1.25 | C[C@H]1Cc2cccc(C(=O)O)c2OB1O |
| 0.16 | COc1ccc2c(c1C(=O)O)OB(O)C1CC21 (stereo not given) |
| 1.25 | COc1ccc2c(c1C(=O)O)OB(O)C1C2C1(F)F (stereo not given) |

These compounds were tested on Pseudomonas aeruginosa (assay: Inhibition of Pseudomonas aeruginosa PAM 2035 AmpC assessed as minimum concentration of compound needed to reduce the MIC of aztreonam to 4 ug/ml).

| Structure (SMILES) | MEC [µg/mL] |
| --- | --- |
| COc1ccc2c(c1C(=O)O)OB(O)CC21CC1 | 10 |
| O=C(O)c1nccc2c1OB(O)[C@H]1C[C@@H]21 | 10 |

Next, values leading:

| MEC [µg/mL] | Structure (SMILES) |
| --- | --- |
| 1.25 | C[C@H]1Cc2cccc(C(=O)O)c2OB1O |
| 5 | COc1ccc2c(c1C(=O)O)OB(O)C1CC21 (stereo not given) |
| 10 | COc1ccc2c(c1C(=O)O)OB(O)C1C2C1(F)F (stereo not given) |

What follows are compounds tested on Klebsiella pneumoniae (assay: Inhibition of Klebsiella pneumoniae KP1081 NDM-1 assessed as minimum concentration of compound required to reduce the MIC of biapenem to 1 ug/ml).

| Structure (SMILES) | MEC [µg/mL] |
| --- | --- |
| COc1ccc2c(c1C(=O)O)OB(O)CC21CC1 | 2.5 |
| O=C(O)c1nccc2c1OB(O)[C@H]1C[C@@H]21 | 20 |

Results, then the compound that gave them:

| MEC [µg/mL] | Structure (SMILES) |
| --- | --- |
| 1.25 | C[C@H]1Cc2cccc(C(=O)O)c2OB1O |
| 0.6 | COc1ccc2c(c1C(=O)O)OB(O)C1CC21 (stereo not given) |
| 2.5 | COc1ccc2c(c1C(=O)O)OB(O)C1C2C1(F)F (stereo not given) |

The compounds below were run on Acinetobacter baumannii (assay: Inhibition of Acinetobacter baumannii AB1053 OXA-72 assessed as minimum concentration of compound needed to reduce the MIC of meropenem to 8 ug/ml).

| Structure (SMILES) | MEC [µg/mL] |
| --- | --- |
| COc1ccc2c(c1C(=O)O)OB(O)CC21CC1 | 1.25 |
| O=C(O)c1nccc2c1OB(O)[C@H]1C[C@@H]21 | 5 |

Next, values leading:

| MEC [µg/mL] | Structure (SMILES) |
| --- | --- |
| > 20 | C[C@H]1Cc2cccc(C(=O)O)c2OB1O |
| 0.6 | COc1ccc2c(c1C(=O)O)OB(O)C1CC21 (stereo not given) |
| 5 | COc1ccc2c(c1C(=O)O)OB(O)C1C2C1(F)F (stereo not given) |

Each compound was assayed on Klebsiella pneumoniae (assay: Inhibition of Klebsiella pneumoniae KP1160 IMP-26 assessed as minimum concentration of compound needed to reduce the MIC of meropenem to 1 ug/ml).

| Structure (SMILES) | MEC [µg/mL] |
| --- | --- |
| COc1ccc2c(c1C(=O)O)OB(O)CC21CC1 | > 20 |
| O=C(O)c1nccc2c1OB(O)[C@H]1C[C@@H]21 | > 20 |

Next, values leading:

| MEC [µg/mL] | Structure (SMILES) |
| --- | --- |
| > 20 | C[C@H]1Cc2cccc(C(=O)O)c2OB1O |
| 5 | COc1ccc2c(c1C(=O)O)OB(O)C1CC21 (stereo not given) |
| > 20 | COc1ccc2c(c1C(=O)O)OB(O)C1C2C1(F)F (stereo not given) |

What follows are compounds tested on Escherichia coli (assay: Inhibition of Escherichia coli KP308 SHV-5 assessed as minimum concentration of compound required to reduce the MIC of aztreonam to 4 ug/ml).

| Structure (SMILES) | MEC [µg/mL] |
| --- | --- |
| COc1ccc2c(c1C(=O)O)OB(O)CC21CC1 | 1.25 |
| O=C(O)c1nccc2c1OB(O)[C@H]1C[C@@H]21 | 10 |

Now from value to compound:

| MEC [µg/mL] | Structure (SMILES) |
| --- | --- |
| 20 | C[C@H]1Cc2cccc(C(=O)O)c2OB1O |
| 0.3 | COc1ccc2c(c1C(=O)O)OB(O)C1CC21 (stereo not given) |
| 1.25 | COc1ccc2c(c1C(=O)O)OB(O)C1C2C1(F)F (stereo not given) |

What follows are compounds tested on Enterobacter cloacae (assay: Inhibition of Enterobacter cloacae ECL1002 AmpC assessed as minimum concentration of compound needed to reduce the MIC of aztreonam to 4 ug/ml).

| Structure (SMILES) | MEC [µg/mL] |
| --- | --- |
| COc1ccc2c(c1C(=O)O)OB(O)CC21CC1 | 2.5 |
| O=C(O)c1nccc2c1OB(O)[C@H]1C[C@@H]21 | 20 |

Now from value to compound:

| MEC [µg/mL] | Structure (SMILES) |
| --- | --- |
| 20 | C[C@H]1Cc2cccc(C(=O)O)c2OB1O |
| 0.3 | COc1ccc2c(c1C(=O)O)OB(O)C1CC21 (stereo not given) |
| 10 | COc1ccc2c(c1C(=O)O)OB(O)C1C2C1(F)F (stereo not given) |

Each compound was assayed on Klebsiella pneumoniae (assay: Inhibition of Klebsiella pneumoniae KP1054 VIM-1 assessed as minimum concentration of compound required to reduce the MIC of biapenem to 1 ug/ml).

| Structure (SMILES) | MEC [µg/mL] |
| --- | --- |
| COc1ccc2c(c1C(=O)O)OB(O)CC21CC1 | 20 |
| O=C(O)c1nccc2c1OB(O)[C@H]1C[C@@H]21 | 20 |

The next lines start with the values.

| MEC [µg/mL] | Structure (SMILES) |
| --- | --- |
| 5 | C[C@H]1Cc2cccc(C(=O)O)c2OB1O |
| 0.08 | COc1ccc2c(c1C(=O)O)OB(O)C1CC21 (stereo not given) |
| 10 | COc1ccc2c(c1C(=O)O)OB(O)C1C2C1(F)F (stereo not given) |

These compounds were tested on Escherichia coli (assay: Inhibition of Escherichia coli ECM6625 SHV-5 assessed as minimum concentration of compound needed to reduce the MIC of aztreonam to 4 ug/ml).

| Structure (SMILES) | MEC [µg/mL] |
| --- | --- |
| COc1ccc2c(c1C(=O)O)OB(O)CC21CC1 | 1.25 |
| O=C(O)c1nccc2c1OB(O)[C@H]1C[C@@H]21 | 10 |

Other lines, results leading:

| MEC [µg/mL] | Structure (SMILES) |
| --- | --- |
| 20 | C[C@H]1Cc2cccc(C(=O)O)c2OB1O |
| 0.3 | COc1ccc2c(c1C(=O)O)OB(O)C1CC21 (stereo not given) |
| 1.25 | COc1ccc2c(c1C(=O)O)OB(O)C1C2C1(F)F (stereo not given) |

The compounds below were run on Escherichia coli (assay: Inhibition of Escherichia coli ECM6619 TEM-10 assessed as minimum concentration of compound needed to reduce the MIC of aztreonam to 4 ug/ml).

| Structure (SMILES) | MEC [µg/mL] |
| --- | --- |
| COc1ccc2c(c1C(=O)O)OB(O)CC21CC1 | 5 |
| O=C(O)c1nccc2c1OB(O)[C@H]1C[C@@H]21 | 5 |

Further lines, results first:

| MEC [µg/mL] | Structure (SMILES) |
| --- | --- |
| > 20 | C[C@H]1Cc2cccc(C(=O)O)c2OB1O |
| 0.3 | COc1ccc2c(c1C(=O)O)OB(O)C1CC21 (stereo not given) |
| 5 | COc1ccc2c(c1C(=O)O)OB(O)C1C2C1(F)F (stereo not given) |
